Structures can show the parent of a compound that is named as a salt.

What is called EC50 is the concentration giving half of the maximal effect. By IC50 is commonly meant the concentration that gives 50% inhibition.

Series [1] has as its system K562/A02. The experiment in a line: Cytotoxicity against human K562/A02 cells over expressing P-gp at 20 uM incubated for 72 hrs by CCK-8 assay. To be noted: k562/a02, 72 h. It is filed as toxicity, cell-based. Background: Tetrazolium dyes change colour on reduction, which living cells bring about.
The subject of series [2] is K562/A02. The experiment in a line: Effect on P-glycoprotein expression at protein level in human K562/A02 cells at 0.5 to 8.0 uM incubated for 24 hrs by Western blot analysis. The series is classed as functional, cell-based. To be noted: dose 0.5-8 µM. In general terms: In western blotting, separated proteins are transferred to a membrane and probed.
In series [3] the test system is K562/A02. The experiment in a line: Effect on P-glycoprotein expression at mRNA level in human K562/A02 cells at 0.5 to 8.0 uM by q-PCR analysis. To be noted: dose 0.5-8 µM. The series is classed as functional, cell-based.
The target in series [4] is T1, ATP-dependent translocase ABCB1 (Homo sapiens, UniProt P08183). The experiment in a line: Induction of thermal stabilization of P-glycoprotein in human K562/A02 cells at 50 uM under 25 to 61 degreeC incubated for 1 hrs by CETSA based Western blot analysis. It is filed as cell-based. To be noted: k562/a02, 1 h.
T1 sequence (P08183 whole entry): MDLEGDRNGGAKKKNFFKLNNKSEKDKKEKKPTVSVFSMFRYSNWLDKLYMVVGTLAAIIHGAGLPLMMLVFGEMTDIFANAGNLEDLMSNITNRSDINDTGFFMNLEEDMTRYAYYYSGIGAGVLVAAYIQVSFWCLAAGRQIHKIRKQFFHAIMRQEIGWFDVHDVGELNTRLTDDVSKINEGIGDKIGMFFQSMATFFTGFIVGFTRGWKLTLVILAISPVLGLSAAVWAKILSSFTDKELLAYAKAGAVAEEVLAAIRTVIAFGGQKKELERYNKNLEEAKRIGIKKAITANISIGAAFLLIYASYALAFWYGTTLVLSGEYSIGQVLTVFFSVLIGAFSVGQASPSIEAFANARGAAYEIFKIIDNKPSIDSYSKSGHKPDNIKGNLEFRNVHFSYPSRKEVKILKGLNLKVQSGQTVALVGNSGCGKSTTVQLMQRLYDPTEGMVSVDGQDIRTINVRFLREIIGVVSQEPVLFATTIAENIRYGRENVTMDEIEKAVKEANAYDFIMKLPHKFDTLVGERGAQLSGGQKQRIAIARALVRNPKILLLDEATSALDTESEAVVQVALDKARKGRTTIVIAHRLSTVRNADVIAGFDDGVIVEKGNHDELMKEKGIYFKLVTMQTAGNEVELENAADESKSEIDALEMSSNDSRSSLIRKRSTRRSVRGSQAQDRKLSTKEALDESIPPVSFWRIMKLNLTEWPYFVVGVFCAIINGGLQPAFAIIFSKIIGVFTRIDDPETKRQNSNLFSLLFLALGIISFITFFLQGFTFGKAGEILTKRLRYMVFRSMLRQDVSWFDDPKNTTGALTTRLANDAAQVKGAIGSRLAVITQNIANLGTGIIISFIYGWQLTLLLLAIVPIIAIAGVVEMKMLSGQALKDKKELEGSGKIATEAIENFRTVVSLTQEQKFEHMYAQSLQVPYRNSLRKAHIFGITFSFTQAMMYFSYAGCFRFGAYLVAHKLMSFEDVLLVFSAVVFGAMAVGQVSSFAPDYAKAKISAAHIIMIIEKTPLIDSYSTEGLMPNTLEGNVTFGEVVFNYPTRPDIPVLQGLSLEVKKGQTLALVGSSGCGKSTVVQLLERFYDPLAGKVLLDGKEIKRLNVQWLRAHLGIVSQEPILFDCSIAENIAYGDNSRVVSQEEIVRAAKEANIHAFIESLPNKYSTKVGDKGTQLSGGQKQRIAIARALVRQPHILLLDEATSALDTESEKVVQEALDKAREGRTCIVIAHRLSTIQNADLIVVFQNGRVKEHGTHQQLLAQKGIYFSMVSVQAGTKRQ
Series [5] has as its system K562/A02. The experiment in a line: Reversal of multi-drug resistance in human K562/A02 cells assessed as decrease in adriamycin IC50 preincubated with compound followed by ADR addition for 48 hrs. It is filed as functional, cell-based.
In series [6] the target is T1, ATP-dependent translocase ABCB1. The experiment in a line: Inhibition of P-glycoprotein in human K562/A02 cells assessed as accumulation of rhodamine incubated for 4 hrs by flow cytometric analysis. To be noted: k562/a02, 4 h, at 0.5 to 8 µM, dose 0.5-8 µM. It is filed as cell-based.
Series [7] concerns K562/A02. The experiment in a line: Antiproliferative activity against human K562/A02 cells assessed as reduction in cell viability incubated for 72 hrs by CCK-8 assay. It is filed as functional, cell-based. To be noted: K562/A02, 72 h.

As for `COc1cc2c(cc1OC)CN(CCc1ccc(/N=N/c3ccccc3NC(=O)c3ccccc3Cl)cc1)CC2`, the Activity entry with K562/A02 [1] was “Non-toxic”.

On to `COc1cc2c(cc1OC)CN(CCc1ccc(/N=N/c3ccccc3NC(=O)c3ccccc3[N+](=O)[O-])cc1)CC2`, for which the Activity result in the series on K562/A02 [1] is “Non-toxic”.

Turning to `COc1cc2c(cc1OC)CN(CCc1ccc(/N=N/c3ccccc3NC(=O)c3ccc(C(C)(C)C)cc3)cc1)CC2`, the Activity result with K562/A02 [1] is listed as “Non-toxic”.

For the compound `COc1cc2c(cc1OC)CN(CCc1ccc(/N=N/c3ccccc3NC(=O)c3ccc(Cl)cc3)cc1)CC2`, the Activity result in the series on K562/A02 [1] is listed as “Non-toxic”.

In the case of `COc1cc2c(cc1OC)CN(CCc1ccc(/N=N/c3ccccc3NC(=O)c3ccc(C)cc3)cc1)CC2`, the Activity result in the series on K562/A02 [1] is listed as “Non-toxic”.

`COc1cc2c(cc1OC)CN(CCc1ccc(NC(=O)c3ccccc3/N=N/c3cccc(Cl)c3)cc1)CC2`: the Activity entry with K562/A02 [1] was “Non-toxic”.

For the compound `COc1cc2c(cc1OC)CN(CCc1ccc(/N=N/c3ccccc3NC(=O)c3ccccc3OC)cc1)CC2`, the Activity entry is “Active; Little Effect Of Compound Observed” in the series with K562/A02 [2], “Active; Little Effect Of Compound Observed” in the series with K562/A02 [3], “Active” in series [4] and “Non-toxic” in the series with K562/A02 [1]. The half-maximal effective concentration (EC50) in the series with K562/A02 [5] turned out to be 120 nM. Also, the “inhibition (INH)” value in series [6] is recorded as “Dose-dependent-effect”.

`COc1ccc(C(=O)Nc2ccccc2/N=N/c2ccc(CCN3CCc4cc(OC)c(OC)cc4C3)cc2)cc1OC`: the Activity result with K562/A02 [1] was “Non-toxic”.

On to `COc1cc2c(cc1OC)CN(CCc1ccc(NC(=O)c3ccccc3/N=N/c3ccc(C)cc3)cc1)CC2`, for which the Activity entry in the series with K562/A02 [1] is “Non-toxic”.

For the compound `COc1cc2c(cc1OC)CN(CCc1ccc(/N=N/c3ccccc3NC(=O)c3cc(OC)c(OC)c(OC)c3)cc1)CC2`, the Activity result in the series with K562/A02 [1] was “Non-toxic”.

In the case of `COc1cc2c(cc1OC)CN(CCc1ccc(NC(=O)c3ccccc3/N=N/c3ccc(Cl)cc3)cc1)CC2`, in the series on K562/A02 [1], the Activity entry is “Non-toxic”.

Turning to `COc1cccc2c1C(=O)c1c(O)c3c(c(O)c1C2=O)C[C@@](O)(C(=O)CO)C[C@@H]3O[C@H]1C[C@H](N)[C@H](O)[C@H](C)O1` [DOXORUBICIN HYDROCHLORIDE], the IC50 with K562/A02 [7] amounted to 2160 nM.

With `COc1cc2c(cc1OC)CN(CCc1ccc(/N=N/c3ccccc3NC(=O)c3ccc(Cl)c(Cl)c3)cc1)CC2`, the Activity result with K562/A02 [1] is “Non-toxic”.

On to `COc1cc2c(cc1OC)CN(CCc1ccc(/N=N/c3ccccc3NC(=O)c3ccccc3)cc1)CC2`, for which the Activity result with K562/A02 [1] is recorded as “Non-toxic”.

With `COc1cccc(C(=O)Nc2ccccc2/N=N/c2ccc(CCN3CCc4cc(OC)c(OC)cc4C3)cc2)c1`, the Activity result in the series on K562/A02 [1] was “Non-toxic”.

Regarding `COc1cc2c(cc1OC)CN(CCc1ccc(/N=N/c3ccccc3NC(=O)c3ccc(F)c(F)c3)cc1)CC2`, in the series on K562/A02 [1], the Activity entry is listed as “Non-toxic”.

As for `COc1cc2c(cc1OC)CN(CCc1ccc(/N=N/c3ccccc3NC(=O)c3ccc(C)c(C)c3)cc1)CC2`, in the series with K562/A02 [1], the Activity result is on record as “Non-toxic”.

Regarding `COc1cc2c(cc1OC)CN(CCc1ccc(/N=N/c3ccccc3NC(=O)c3ccc([N+](=O)[O-])cc3)cc1)CC2`, the Activity entry in the series with K562/A02 [1] is listed as “Non-toxic”.

Consider `COc1cc2c(cc1OC)CN(CCc1ccc(/N=N/c3ccccc3NC(=O)c3cccc(Cl)c3)cc1)CC2`, for which the Activity entry in the series with K562/A02 [1] is reported as “Non-toxic”.

As for `COc1ccccc1/N=N/c1ccccc1C(=O)Nc1ccc(CCN2CCc3cc(OC)c(OC)cc3C2)cc1`, in the series on K562/A02 [1], the Activity entry is “Non-toxic”.

As to `COc1cc2c(cc1OC)CN(CCc1ccc(NC(=O)c3ccccc3/N=N/c3ccccc3)cc1)CC2`, in the series with K562/A02 [1], the Activity entry is given as “Non-toxic”.

For `COc1ccc(C(=O)Nc2ccccc2/N=N/c2ccc(CCN3CCc4cc(OC)c(OC)cc4C3)cc2)cc1`, the Activity result in the series with K562/A02 [1] is recorded as “Non-toxic”.

In the case of `COc1ccc(C(=O)Nc2ccccc2C(=O)Nc2ccc(CCN3CCc4cc(OC)c(OC)cc4C3)cc2)cc1OC`, in the series on K562/A02 [5], the EC50 worked out at 29.4 nM.

For the compound `COc1cc2c(cc1OC)CN(CCc1ccc(/N=N/c3ccccc3NC(=O)c3cccc([N+](=O)[O-])c3)cc1)CC2`, the Activity entry with K562/A02 [1] is “Non-toxic”.

Values taken from ChEMBL document CHEMBL6092160, “Discovery of novel third generation P-glycoprotein inhibitors bearing an azo moiety with MDR-reversing effect” (Eur J Med Chem, 2024).
